Holding throughout (format): biochemical
Common to all, as to settings: mean from three determinations, errors 5–10%

Assay [1] deals with T1, hCA I (Homo sapiens, UniProt P00915).
T1 construct: made in house
Description: stopped-flow CO2 hydrase assay, hCA I. Here is the method: (§1) An Applied Photophysics stopped-flow instrument has been used for assaying the CA catalysed CO2 hydration activity. […] The CO2 concentrations ranged from 1.7 to 17 mM for the determination of the kinetic parameters and inhibition constants. In particular, CO2 was bubbled in distilled deionised water for 30 min till saturation. A CO2 kit (Sigma, Milan, Italy) was used to measure the concentration in serially diluted solutions from the saturated one at the same temperature. […] The uncatalyzed rates were determined in the same manner and subtracted from the total observed rates. Stock solutions of inhibitor (1 µM) were prepared in distilled-deionised water and dilutions up to 0.1 nM were done thereafter with the assay buffer. […] The inhibition constants were obtained by non-linear least-squares methods using PRISM 3 and the Cheng-Prusoff equation[29], and represent the average from at least three different determinations. All recombinant CA isoforms were obtained in-house as previously reported[30]^,[31].

Assay [2] has as its target T2, hCA IX (Homo sapiens, UniProt Q16790).
T2 construct: made in house
Briefly: stopped-flow CO2 hydrase assay, hCA IX. Here is the method: as §1

The target of assay [3] is T3, hCA II (Homo sapiens, UniProt P00918).
T3 construct: made in house
Briefly: stopped-flow CO2 hydrase assay, hCA II. On the procedure:
as §1

For assay [4], the target named is T4, hCA XII (Homo sapiens, UniProt O43570).
T4 construct: made in house
Description: stopped-flow CO2 hydrase assay, hCA XII. Here is the method: as §1

Usually Ki stands for the equilibrium dissociation constant of an inhibitor or competing ligand from its target. High values mean weaker binding, low ones tighter binding.

T1 sequence (P00915 whole entry): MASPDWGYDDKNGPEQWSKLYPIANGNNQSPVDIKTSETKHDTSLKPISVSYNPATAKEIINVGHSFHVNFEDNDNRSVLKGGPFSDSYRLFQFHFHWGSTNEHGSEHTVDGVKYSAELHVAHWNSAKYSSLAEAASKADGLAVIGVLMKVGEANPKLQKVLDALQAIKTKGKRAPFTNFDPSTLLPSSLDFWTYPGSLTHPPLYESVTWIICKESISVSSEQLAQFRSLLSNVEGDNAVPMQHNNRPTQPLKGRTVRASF
T4 sequence (O43570 25-354): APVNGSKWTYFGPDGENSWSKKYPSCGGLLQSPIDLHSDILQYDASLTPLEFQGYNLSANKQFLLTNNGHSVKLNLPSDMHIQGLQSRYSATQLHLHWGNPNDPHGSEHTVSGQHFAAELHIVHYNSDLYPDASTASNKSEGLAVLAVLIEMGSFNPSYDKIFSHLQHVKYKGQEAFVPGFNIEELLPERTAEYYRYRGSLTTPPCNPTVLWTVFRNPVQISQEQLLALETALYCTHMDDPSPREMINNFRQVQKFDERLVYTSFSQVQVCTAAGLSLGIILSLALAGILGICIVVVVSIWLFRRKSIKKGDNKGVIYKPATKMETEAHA

For the molecule `O=C(O)c1ccccc1[S@+]([O-])Cc1ccccc1` [(R)-5], the Ki was over 100 µM in assay [1], 1.4 µM in assay [2] and 0.21 µM in assay [3].
In the same order, the values of `COC(=O)c1ccccc1[S@+]([O-])Cc1ccccc1` [(R)-8] are over 100 µM, 15.3 µM and 84.9 µM.
For the molecule `COC(=O)c1ccccc1[S@+]([O-])Cc1ccc(Cl)cc1` [(R)-11], the inhibitory constant (Ki) is over 100 µM in assay [1], 1.4 µM in assay [2] and over 100 µM in assay [3].
Consider `NC(=O)c1ccccc1[S@+]([O-])Cc1ccccc1` [(R)-17], for which the Ki is over 100 µM in assay [1], 2.2 µM in assay [2] and 52.2 µM in assay [3].
`CNC(=O)c1ccccc1[S@+]([O-])Cc1ccccc1` [(R)-20]: the inhibition constant (Ki) was over 100 µM in assay [1], 22.8 µM in assay [2] and 52.2 µM in assay [3].
In the same order, the values of `O=C(O)c1ccccc1[S@@+]([O-])Cc1ccccc1` [(S)-5] are over 100 µM, 1.2 µM and 0.093 µM.
In the same order, the values of `COC(=O)c1ccccc1[S@@+]([O-])Cc1ccccc1` [(S)-8] are over 100 µM, 20 µM and 65.7 µM.
For the molecule `COC(=O)c1ccccc1[S@@+]([O-])Cc1ccc(Cl)cc1` [(S)-11], the Ki is over 100 µM in assay [1], 18.1 µM in assay [2] and over 100 µM in assay [3].
For `NC(=O)c1ccccc1[S@@+]([O-])Cc1ccccc1` [(S)-17], the inhibitory constant (Ki) in assay [1] was over 100 µM; in assay [2] it was 1.9 µM; in assay [3] it was 51.9 µM.
In the same order, the values of `CNC(=O)c1ccccc1[S@@+]([O-])Cc1ccccc1` [(S)-20] are over 100 µM, 24.6 µM and 38.9 µM.
As for `CC(=O)c1ccccc1SCc1ccccc1` [Compound 1], the Ki in assay [1] is over 100 µM; in assay [2], 1.1 µM; in assay [3] it was over 100 µM.
`CC(=O)c1ccccc1[S+]([O-])Cc1ccccc1` (stereo not drawn) [Compound 2]: the Ki is over 100 µM in assay [1], 2 µM in assay [2] and 63.2 µM in assay [3].
In the same order, the values of `CC(=O)c1ccccc1S(=O)(=O)Cc1ccccc1` [Compound 3] are over 100 µM, 16.4 µM and over 100 µM.
In the same order, the values of `O=C(O)c1ccccc1S(=O)(=O)Cc1ccccc1` [Compound 6] are over 100 µM, 2.3 µM and over 100 µM.
Turning to `COC(=O)c1ccccc1SCc1ccccc1` [Compound 7], the Ki was over 100 µM in assay [1], 15 µM in assay [2] and 75.2 µM in assay [3].
`COC(=O)c1ccccc1S(=O)(=O)Cc1ccccc1` [Compound 9]: the figures for the inhibition constant (Ki) in assay [1], in assay [2] and in assay [3] were over 100 µM, 11.4 µM and over 100 µM, respectively.
For the molecule `COC(=O)c1ccccc1SCc1ccc(Cl)cc1` [Compound 10], the Ki in assay [1] is over 100 µM; in assay [2] it was 1 µM; in assay [3] it was 45.7 µM.
In the case of `COC(=O)c1ccccc1S(=O)(=O)Cc1ccc(Cl)cc1` [Compound 12], the Ki in assay [1] is over 100 µM; in assay [2] it was 21.1 µM; in assay [3], 40.1 µM.
In the same order, the values of `COC(=O)c1ccccc1SCC(=O)c1ccccc1` [Compound 13] are over 100 µM, over 100 µM and over 100 µM.
In the same order, the values of `COC(=O)c1ccccc1[S+]([O-])CC(=O)c1ccccc1` (stereo not drawn) [Compound 14] are over 100 µM, over 100 µM and over 100 µM.
In the same order, the values of `COC(=O)c1ccccc1S(=O)(=O)CC(=O)c1ccccc1` [Compound 15] are over 100 µM, over 100 µM and over 100 µM.
Turning to `NC(=O)c1ccccc1SCc1ccccc1` [Compound 16], the Ki was over 10 µM in assay [1], 0.046 µM in assay [2], 8.22 µM in assay [3] and 2.66 µM in assay [4]. In assay [4], the “Ki hCA XII” value was “medium-potency inhibitor”.
Turning to `NC(=O)c1ccccc1S(=O)(=O)Cc1ccccc1` [Compound 18], the Ki in assay [1] is over 10 µM; in assay [2], over 10 µM; in assay [3], 2.67 µM; in assay [4], 0.066 µM. Also, the “Ki hCA IX” value in assay [2] is “completely lost the affinity”.
Consider `CNC(=O)c1ccccc1SCc1ccccc1` [Compound 19], for which the figures for the Ki in assay [1], in assay [2] and in assay [3] were over 100 µM, 19.8 µM and 86.3 µM, respectively.
Take `CNC(=O)c1ccccc1S(=O)(=O)Cc1ccccc1` [Compound 21]: the inhibition constant Ki in assay [1] is over 100 µM; in assay [2] it was 25.8 µM; in assay [3], 68.2 µM.
For the molecule `CCCC[S+]([O-])c1ccccc1C(=O)OC` (stereo not drawn) [Compound 22], in assay [1], the Ki is over 100 µM and the “Ki hCA I” value is “inactive”. For the same molecule, in assay [2], the Ki is over 100 µM and the “Ki hCA IX” value was “inactive”. Moreover, in assay [3], the Ki was over 100 µM and the “Ki hCA II” value was “inactive”.
As to `CCCCC[S+]([O-])c1ccccc1C(=O)OC` (stereo not drawn) [Compound 23], in assay [1], the Ki was over 100 µM and the “Ki hCA I” value was “inactive”. In addition, in assay [2], the Ki was over 100 µM and the “Ki hCA IX” value is “inactive”. Moreover, in assay [3], the inhibition constant (Ki) is over 100 µM and the “Ki hCA II” value is “inactive”.
`CSc1ccccc1C(N)=O` [Compound 24]: the Ki in assay [1] is over 100 µM; in assay [2] it was 6.5 µM; in assay [3], over 100 µM; in assay [4], over 100 µM.
Regarding `C[S+]([O-])c1ccccc1C(N)=O` (stereo not drawn) [Compound 25], the Ki is over 100 µM in assay [1], 34.5 µM in assay [2], over 100 µM in assay [3] and over 100 µM in assay [4].
As to `CS(=O)(=O)c1ccccc1C(N)=O` [Compound 26], the Ki in assay [1] is over 100 µM; in assay [2], 14 µM; in assay [3] it was over 100 µM; in assay [4], over 100 µM.
Regarding `CCSc1ccccc1C(N)=O` [Compound 27], the Ki in assay [1] was over 100 µM; in assay [2] it was 16.7 µM; in assay [3] it was over 100 µM; in assay [4] it was over 100 µM.
With `CC[S+]([O-])c1ccccc1C(N)=O` (stereo not drawn) [Compound 28], the Ki is over 100 µM in assay [1], 40.9 µM in assay [2], over 100 µM in assay [3] and over 100 µM in assay [4].
On to `CCS(=O)(=O)c1ccccc1C(N)=O` [Compound 29], for which the Ki in assay [1] was over 100 µM; in assay [2] it was 22.7 µM; in assay [3] it was over 100 µM; in assay [4] it was over 100 µM.
As for `CCCSc1ccccc1C(N)=O` [Compound 30], the Ki was over 100 µM in assay [1], over 100 µM in assay [2], 90.9 µM in assay [3] and over 100 µM in assay [4].
Consider `CCC[S+]([O-])c1ccccc1C(N)=O` (stereo not drawn) [Compound 31], for which the Ki is over 100 µM in assay [1], 38.2 µM in assay [2], over 100 µM in assay [3] and over 100 µM in assay [4].
As to `CCCS(=O)(=O)c1ccccc1C(N)=O` [Compound 32], the Ki is over 100 µM in assay [1], 2.3 µM in assay [2], over 100 µM in assay [3] and over 100 µM in assay [4].
In the case of `CCCCSc1ccccc1C(N)=O` [Compound 33], the Ki in assay [1] was over 100 µM; in assay [2] it was 2.5 µM; in assay [3], over 100 µM; in assay [4] it was over 100 µM.
As for `CCCC[S+]([O-])c1ccccc1C(N)=O` (stereo not drawn) [Compound 34], the Ki is over 100 µM in assay [1], 36.4 µM in assay [2], over 100 µM in assay [3] and over 100 µM in assay [4].
For `CCCCS(=O)(=O)c1ccccc1C(N)=O` [Compound 35], the Ki in assay [1] is over 100 µM; in assay [2], 13.5 µM; in assay [3], over 100 µM; in assay [4], over 100 µM.
Turning to `CCCCCSc1ccccc1C(N)=O` [Compound 36], the inhibition constant Ki in assay [1] was over 100 µM; in assay [2], 2.7 µM; in assay [3], over 100 µM; in assay [4], over 100 µM.
In the case of `CCCCC[S+]([O-])c1ccccc1C(N)=O` (stereo not drawn) [Compound 37], the Ki is over 100 µM in assay [1], 27.3 µM in assay [2], over 100 µM in assay [3] and over 100 µM in assay [4].
On to `CCCCCS(=O)(=O)c1ccccc1C(N)=O` [Compound 38], for which the Ki in assay [1] is over 100 µM; in assay [2] it was 8.7 µM; in assay [3], over 100 µM; in assay [4], over 100 µM.
Consider `O=C(O)c1ccccc1OCc1ccccc1` [Compound 39], for which the Ki in assay [1], in assay [2], in assay [3] and in assay [4] was over 100 µM each time.
Consider `O=C(O)c1ccccc1NCc1ccccc1` [Compound 40], for which the Ki in assay [1], in assay [2], in assay [3] and in assay [4] was over 100 µM in each case.
As for `O=C(O)c1ccccc1CCc1ccccc1` [Compound 41], the Ki in assay [1], in assay [2], in assay [3] and in assay [4] was over 100 µM each time.
Turning to `O=C(Cc1ccccc1)Nc1ccccc1C(=O)O` [Compound 42], the inhibition constant Ki in assay [1], in assay [2], in assay [3] and in assay [4] was over 100 µM throughout.
With `Nc1ccccc1C(=O)O` [Compound 43, anthranilic acid], the Ki in assay [1], in assay [2], in assay [3] and in assay [4] was over 100 µM each time.
